Test results reported in patent US10894784B2, “Heteroarylbenzimidazole compounds” (BAYER PHARMA AKTIENGESELLSCHAFT, priority 2015, dated 2021).

The compounds below were run against TBK1 (Homo sapiens (Human), UniProt Q9UHD2) (assay: TBK1 low ATP kinase assay (in vitro assay 1)). Details: in vitro assay 1, read-out: TBK1 low ATP kinase assay IC50.
Type: biochemical

TBK1, sequence (Q9UHD2 whole entry): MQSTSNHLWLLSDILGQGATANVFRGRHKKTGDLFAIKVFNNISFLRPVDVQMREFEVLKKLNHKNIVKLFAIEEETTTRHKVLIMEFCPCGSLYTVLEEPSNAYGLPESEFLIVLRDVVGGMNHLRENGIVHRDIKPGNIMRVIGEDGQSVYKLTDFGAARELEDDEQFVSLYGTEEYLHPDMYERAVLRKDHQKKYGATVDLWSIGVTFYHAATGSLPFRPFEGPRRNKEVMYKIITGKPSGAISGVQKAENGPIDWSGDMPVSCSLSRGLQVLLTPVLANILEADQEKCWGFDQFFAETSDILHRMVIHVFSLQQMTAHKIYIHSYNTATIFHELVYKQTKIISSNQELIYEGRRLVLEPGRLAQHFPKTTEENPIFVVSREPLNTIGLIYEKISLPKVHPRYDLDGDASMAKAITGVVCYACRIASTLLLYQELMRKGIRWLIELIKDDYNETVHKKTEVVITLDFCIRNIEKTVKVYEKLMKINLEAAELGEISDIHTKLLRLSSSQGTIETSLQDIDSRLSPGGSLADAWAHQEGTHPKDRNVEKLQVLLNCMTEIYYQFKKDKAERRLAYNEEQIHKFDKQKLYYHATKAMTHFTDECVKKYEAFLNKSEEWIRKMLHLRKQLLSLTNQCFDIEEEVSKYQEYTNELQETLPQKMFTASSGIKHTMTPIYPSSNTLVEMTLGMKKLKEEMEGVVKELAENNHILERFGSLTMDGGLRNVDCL

| IC50 | Structure (SMILES) |
| --- | --- |
| 0.362 µM | CN(C)c1ccnc(-c2ccc3nc(Nc4cc(CN5CCN(C(=O)C6CC6)CC5)ccn4)[nH]c3c2)n1 [Example 181.03, cyclopropyl(4-{[2-({6-[4-(dimethylamino)pyrimidin-2-yl]-1H-benzimidazol-2-yl}amino)pyridin-4-yl]methyl}piperazin-1-yl)methanone] |
| 0.035 µM | COc1c(NC2CC2)ncnc1-c1ccc2nc(Nc3cc(CN4CCN(C(=O)OC(C)(C)C)CC4)ccn3)[nH]c2c1 [Example 108.01, tert-butyl 4-{[2-({6-[6-(cyclopropylamino)-5-methoxypyrimidin-4-yl]-1H-benzimidazol-2-yl}amino)pyridin-4-yl]methyl}piperazine-1-carboxylate] |
| 0.038 µM | CN(c1cc(-c2ccc3nc(Nc4cc(CN5CCN(C(=O)OC(C)(C)C)CC5)ccn4)[nH]c3c2)ncn1)C1CCC1 [Example 156.01, tert-butyl 4-({2-[(6-{6-[cyclobutyl(methyl)amino]pyrimidin-4-yl}-1H-benzimidazol-2-yl)amino]pyridin-4-yl}methyl)piperazine-1-carboxylate] |
| 0.46 µM | Cc1noc(-c2ccc3nc(Nc4cc(CN5CCN(c6cccc(F)c6)CC5)ccn4)[nH]c3c2)n1 [Example 101.09, N-(4-{[4-(3-fluorophenyl)piperazin-1-yl]methyl}pyridin-2-yl)-6-(3-methyl-1,2,4-oxadiazol-5-yl)-1H-benzimidazol-2-amine] |
| 0.31 µM | Cc1noc(-c2ccc3nc(Nc4cc(CN5CCN(C(=O)c6cccnc6)CC5)ccn4)[nH]c3c2)n1 [Example 101.26, {4-[(2-{[6-(3-methyl-1,2,4-oxadiazol-5-yl)-1H-benzimidazol-2-yl]amino}pyridin-4-yl)methyl]piperazin-1-yl}(pyridin-3-yl)methanone] |
| 0.36 µM | Cc1noc(-c2ccc3nc(Nc4cc(CN5CCN(c6cnccn6)CC5)ccn4)[nH]c3c2)n1 [Example 101.13, 6-(3-methyl-1,2,4-oxadiazol-5-yl)-N-(4-{[4-(pyrazin-2-yl)piperazin-1-yl]methyl}pyridin-2-yl)-1H-benzimidazol-2-amine] |
| 0.0054 µM | COc1c(-c2ccc3nc(Nc4cc(C(C)N5CCN(C(=O)CC(F)(F)F)CC5)ccn4)[nH]c3c2)ncnc1N(C)C (single isomer, unassigned) [Example 107.02.03, 1-(4-{(1R or 1S)-1-[2-({6-[6-(dimethylamino)-5-methoxypyrimidin-4-yl]-1H-benzimidazol-2-yl}amino)pyridin-4-yl]ethyl}piperazin-1-yl)-3,3,3-trifluoropropan-1-one] |
| 0.0953 µM | O=C(CC(F)(F)F)N1CCN(Cc2ccnc(Nc3nc4ccc(-c5ncnc(NCC6CCC6)c5F)cc4[nH]3)c2)CC1 [Example 191.02, 1-[4-({2-[(6-{6-[(cyclobutylmethyl)amino]-5-fluoropyrimidin-4-yl}-1H-benzimidazol-2-yl)amino]pyridin-4-yl}methyl)piperazin-1-yl]-3,3,3-trifluoropropan-1-one] |
| 0.013 µM | CN(CC1CC1)c1cc(-c2ccc3nc(Nc4cc(CN5CCN(C(=O)C6CC6)CC5)ccn4)[nH]c3c2)ncn1 [Example 141.03, cyclopropyl[4-({2-[(6-{6-[(cyclopropylmethyl)(methyl)amino]pyrimidin-4-yl}-1H-benzimidazol-2-yl)amino]pyridin-4-yl}methyl)piperazin-1-yl]methanone] |
| 0.212 µM | COc1nc(Cl)cc(-c2ccc3nc(Nc4cc(CN5CCN(C(=O)OC(C)(C)C)CC5)ccn4)[nH]c3c2)n1 [Example 185.01, tert-butyl 4-[(2-{[6-(6-chloro-2-methoxypyrimidin-4-yl)-1H-benzimidazol-2-yl]amino}pyridin-4-yl)methyl]piperazine-1-carboxylate] |
| 0.019 µM | COc1cc(-c2ccc3nc(Nc4cc(CN5CCN(C(=O)CC(F)(F)F)CC5)ccn4)[nH]c3c2)ncn1 [Example 163.02, 3,3,3-trifluoro-1-{4-[(2-{[6-(6-methoxypyrimidin-4-yl)-1H-benzimidazol-2-yl]amino}pyridin-4-yl)methyl]piperazin-1-yl}propan-1-one] |
| 0.0183 µM | O=C(CC(F)(F)F)N1CCN(Cc2ccnc(Nc3nc4ccc(-c5ncnc(NC6CC6)c5F)cc4[nH]3)c2)CC1 [Example 192.02, 1-(4-{[2-({6-[6-(cyclopropylamino)-5-fluoropyrimidin-4-yl]-1H-benzimidazol-2-yl}amino)pyridin-4-yl]methyl}piperazin-1-yl)-3,3,3-trifluoropropan-1-one] |
| 3.58 µM | COc1cc(-c2ccc3nc(Nc4cc(CN5CCN(C(=O)CC(F)(F)F)CC5)ccn4)[nH]c3c2)nc(C)n1 [Example 176.02, 3,3,3-trifluoro-1-{4-[(2-{[6-(6-methoxy-2-methylpyrimidin-4-yl)-1H-benzimidazol-2-yl]amino}pyridin-4-yl)methyl]piperazin-1-yl}propan-1-one] |

Continued, compound first:

| Structure (SMILES) | IC50 |
| --- | --- |
| CCOc1nccc(-c2ccc3nc(Nc4cc(CN5CCN(C(=O)C6CC6)CC5)ccn4)[nH]c3c2)n1 [Example 26.01.02, cyclopropyl{4-[(2-{[6-(2-ethoxypyrimidin-4-yl)-1H-benzimidazol-2-yl]amino}pyridin-4-yl)methyl]piperazin-1-yl}methanone] | 0.00858 µM |
| Cc1cc(-c2ccc3nc(Nc4cc(C(C)N5CCN(C(=O)CC(F)(F)F)CC5)ccn4)[nH]c3c2)n(C)n1 (single isomer, unassigned) [Example 89.02, 1-{4-[(1R or 1S)-1-(2-{[6-(1,3-dimethyl-1H-pyrazol-5-yl)-1H-benzimidazol-2-yl]amino}pyridin-4-yl)ethyl]piperazin-1-yl}-3,3,3-trifluoropropan-1-one] | 0.45 µM |
| O=C(CC(F)(F)F)N1CCN(Cc2ccnc(Nc3nc4ccc(-c5ccnc(C(F)(F)F)n5)cc4[nH]3)c2)CC1 [Example 27.04, 3,3,3-trifluoro-1-(4-{[2-({6-[2-(trifluoromethyl)pyrimidin-4-yl]-1H-benzimidazol-2-yl}amino)pyridin-4-yl]methyl}piperazin-1-yl)propan-1-one] | 0.197 µM |
| CC(c1ccnc(Nc2nc3ccc(-c4ccncn4)cc3[nH]2)c1)N1CCN(C(=O)C2CCC2)CC1 (racemic) [Example 23.04.01, (rac)-cyclobutyl{4-[1-(2-{[6-(pyrimidin-4-yl)-1H-benzimidazol-2-yl]amino}pyridin-4-yl)ethyl]piperazin-1-yl}methanone] | 0.00344 µM |
| O=C(C1CC1)N1CCN(Cc2ccnc(Nc3nc4ccc(-c5ccn(CC6CC6)c(=O)c5)cc4[nH]3)c2)CC1 [Example 44.02, 4-{2-[(4-{[4-(cyclopropylcarbonyl)piperazin-1-yl]methyl}pyridin-2-yl)amino]-1H-benzimidazol-6-yl}-1-(cyclopropylmethyl)pyridin-2(1H)-one] | 0.0668 µM |
| O=C(C1CC1)N1CCN(Cc2ccnc(Nc3nc4ccc(-c5cnn(CC(F)(F)F)c5)cc4[nH]3)c2)CC1 [Example 58.01.03, cyclopropyl(4-{[2-({6-[1-(2,2,2-trifluoroethyl)-1H-pyrazol-4-yl]-1H-benzimidazol-2-yl}amino)pyridin-4-yl]methyl}piperazin-1-yl)methanone] | 0.00644 µM |
| O=C(C1CC1)N1CCN(Cc2ccnc(Nc3nc4ccc(-c5cncnc5)cc4[nH]3)c2)CC1 [Example 45.01.03, cyclopropyl{4-[(2-{[6-(pyrimidin-5-yl)-1H-benzimidazol-2-yl]amino}pyridin-4-yl)methyl]piperazin-1-yl}methanone] | 0.205 µM |
| COc1cncnc1-c1ccc2nc(Nc3cc(CN4CCN(C(=O)C5CC5)CC4)ccn3)[nH]c2c1 [Example 35.01.02, cyclopropyl{4-[(2-{[6-(5-methoxypyrimidin-4-yl)-1H-benzimidazol-2-yl]amino}pyridin-4-yl)methyl]piperazin-1-yl}methanone] | 0.018 µM |
| CC(c1ccnc(Nc2nc3ccc(-c4cnn(CC5CC5(F)F)c4)c(Cl)c3[nH]2)c1)N1CCN(C(=O)CC(F)(F)F)CC1 (single isomer, unassigned) [Example 70.01, 1-{4-[(1R or 1S)-1-(2-{[7-chloro-6-(1-{[(1RS)-2,2-difluorocyclopropyl]methyl}-1H-pyrazol-4-yl)-1H-benzimidazol-2-yl]amino}pyridin-4-yl)ethyl]piperazin-1-yl}-3,3,3-trifluoropropan-1-one] | 0.00088 µM |
| CC(c1ccnc(Nc2nc3ccc(-c4cnn(CC5CCC5)c4)cc3[nH]2)c1)N1CCN(C(=O)C2CC2)CC1 (single isomer, unassigned) [Example 59.01.03, (4-{(1R or 1S)-1-[2-({6-[1-(cyclobutylmethyl)-1H-pyrazol-4-yl]-1H-benzimidazol-2-yl}amino)pyridin-4-yl]ethyl}piperazin-1-yl)(cyclopropyl)methanone] | 0.00259 µM |
| Cc1nnc(-c2ccc3nc(Nc4cc(CN5CCN(C(=O)C6CC6)CC5)ccn4)[nH]c3c2)o1 [Example 66.01.02, cyclopropyl{4-[(2-{[6-(5-methyl-1,3,4-oxadiazol-2-yl)-1H-benzimidazol-2-yl]amino}pyridin-4-yl)methyl]piperazin-1-yl}methanone] | 0.033 µM |
| CC(c1ccnc(Nc2nc3ccc(-c4cnn(CC5CC5(F)F)c4)cc3[nH]2)c1)N1CCN(C(=O)OC(C)(C)C)CC1 (single isomer, unassigned) [Example 55.01, tert-butyl 4-[(1R or 1S)-1-(2-{[6-(1-{[(1RS)-2,2-difluorocyclopropyl]methyl}-1H-pyrazol-4-yl)-1H-benzimidazol-2-yl]amino}pyridin-4-yl)ethyl]piperazine-1-carboxylate] | 0.00405 µM |
| COc1nccc(-c2ccc3nc(Nc4cc(CN5CCN(C(=O)C6CC6)CC5)cc(C(F)(F)F)n4)[nH]c3c2)n1 [Example 25.02.01, cyclopropyl(4-{[2-{[6-(2-methoxypyrimidin-4-yl)-1H-benzimidazol-2-yl]amino}-6-(trifluoromethyl)pyridin-4-yl]methyl}piperazin-1-yl)methanone] | 0.346 µM |
| CC(C)Cc1noc(-c2ccc3nc(Nc4cc(CN5CCN(C(=O)C6CC6)CC5)ccn4)[nH]c3c2)n1 [Example 18.02, cyclopropyl(4-{[2-({6-[3-(2-methylpropyl)-1,2,4-oxadiazol-5-yl]-1H-benzimidazol-2-yl}amino)pyridin-4-yl]methyl}piperazin-1-yl)methanone] | 0.154 µM |
